Results reported in patent EP0167553B1, “NEW THERAPEUTICAL APPLICATION OF AN INDANE DIONE DERIVATIVE AND PHARMACEUTICAL COMPOSITIONS INTENDED TO SAID UTILIZATION” (priority 1983, dated 1985).
Where “and” joins values, the source holds several entries; their conditions need not be identical. Identical values can stand only once. Like-named read-outs stand apart in the source and are kept apart here.

Tests used:
[1] = Acute toxicity, single administration, intraperitoneal route; format: in vivo; conditions: mouse, in vivo, ip; for LD50 at 360 h: read-out: DL50; for mortality at 360 h: single dose
Description: (§1) Souris SWISS mâles et femelles de 22 à 25g de poids corporel. Animaux EOPS.
(§2) Sauf mention contraire précisée dans les tableaux de résultats, 10 animaux par dose, sexe et cage en MAKROLON SAFI@ de 40/25 cm. Litière de copeaux de bois blanc. Alimentation standard pour rats et souris UAR et eau ordinaire à volonté.
(§3) Ils sont administrés sans jeûne préalable: • - par voie digestive (intubation gastrique par sonde oesophagienne métallique) à raison de 0,5 ml ou 1 ml pour 20 g de poids corporel d'une suspension aqueuse à 3p.100 en gomme arabique du dérivé testé. • - par voie intrapéritonéale à raison de 0,5 ml ou 1 ml pour 20 g d'une suspension du dérivé testé dans le soluté isotonique de chlorure de sodium à 3p.100 en gomme arabique.
(§4) Pendant 6 heures après l'administration unique, puis tous les jours pendant 15 jours.
(§5) S'il y a lieu, les doses létales cinquante (DL50) sont calculées selon les méthodes de: • - Behrens et Karber (B.K.) • - Miller et Tainter (M.T.), cette dernière méthode permettant d'attribuer, pour le seuil de probabilité de P = 0,05 un intervalle de confiance aux DL 50.
(§6) En outre, sont déterminées les DLO et DL100. • - DLO = DMT: Dose Maxima toujours tolérée • - DL100 = DmM: Dose minima toujours Mortelle.

Souris SWISS [2] = assay: as above; format: in vivo; conditions: for DLO: DLO = Dose Maxima toujours tolérée
Description: as §1, §2, §3, §4, §5, §6

[3] = Acute toxicity, single administration, digestive (oral) route; format: in vivo; conditions: mouse, in vivo, po
Text: (§7) Souris SWISS mâles et femelles de 22 à 25g de poids corporel. Animaux EOPS. (exempte d'organisme pathogène spécifique), en provenance de l'élevage CERJ., 53680 LE GENEST et acclimatés au moins 8 jours à l'animalerie du laboratoire.
as §2, §3, §4, §5, §6

Souris SWISS [4] = assay: as above; format: in vivo; conditions: for létalité, symptomatologie toxique: 10.000 mg/kg VO, single dose, 10 souris mâles et femelles
Text: as §7, §2, §3, §4, §5, §6

Rats: Wistar femelles [5] = assay: Atherogenic diet (modified Aubert technique): biochemical examinations and atherogenic risk; format: in vivo, Rat Wistar; parameters: score général Biochimie / Risque athérogène Score Total: scale not given here; conditions: for Cholesterol LDL Cholesterol HDL Score / Cholesterol T/ Cholesterol HDL Score: atherogenic risk ratio; for score général Biochimie: sum of the individual biochemical scores
Text: (§8) La technique utilisée est celle, légèrement modifiée, de AUBERT D., FERAUD J.C., LACAZE B., PEPINO., PANAK E. et PODESTA M. "Athérogénèse expérimentale chez le Rat Wistar". ATHEROSCLEROSIS 2Q (1974) 263 - 280.
(§9) • - Rats: Wistar femelles, E.O.P.S. en provenance de l'élevage EVIC-CEBA. • - Poids corporel: 160 180 g au départ de l'étude • - Alimentation: UAR A03, enrichi en cholestérol (0,5 %) et en Acide chloique (0,5 %). • - Eau de boisson: eau de ville. • - 15 animaux par lot et par cage MAKROLON SAFI® de 59 x 38,5 cm sur litière de copeaux de bois blanc dépoussiérés. • - Cages placées dans un module animalerie climatisé (20°C * 1°C), à l'humidité constante (50 % ± 10 %). Durée d'éclairement: 12 heures par jour (7 h à 19 h). • - Administration des produits: Après 15 jours de régime athéromateux, on leur administre par voie orale pendant 4 jours 250 000 Ul/kg de vitamine D2 (Stérogyl 15 H) en solution dans l'huile d'olive. On administre ensuite les produits à étudier pendant 4 semaines dès la fin de l'administration de l'agent lésionnel.
L'étude porte sur 5 Lots de 15 rats (tableau N° IV)
En fin d'étude, on pratique sur tous les animaux survivants les examens suivants: • - Cholestérol total, • - Cholestérol estérifié, • - Cholestérol HDL • - Cholestérol LDL (évaluation), • - Lipides totaux, • - Triglycérides.

Rats: Wistar femelles [6] = assay: Atherogenic diet (modified Aubert technique): macroscopic examination of the aorta; format: in vivo, Rat Wistar; conditions: for Intensité des lésions Cotation: scale Stade 0 to Stade 5
Text: as §8, §9
En fin d'étude, tous les animaux sont sacrifiés par ponction subtotale du sang à l'aorte abdominale après anesthésie au pentobarbital sodique. On prélève le coeur, le foie et l'aorte sur laquelle on effectue la cotation du pouvoir athérogène. Pour ce faire, les aortes sont coupées longitudinalement puis étalées pour permettre une vue d'ensemble du revêtement endothélial depuis les valvules aortiques jusqu'à la bifurcation du tronc coeliaque (segment inférieur de l'aorte thoracique).
L'aorte est séparée en 2 zones: • - Zone 1: Valvules aortiques - premières artères intercostales • - Zone 2: premières artères intercostales - bifurcation du tronc coeliaque.
L'intensité des dépôts athéromateux est évaluée selon les critères suivants: • - Stade 0: Absence de dépôts • - Stade 1: Dépôts discrets ([…]) peu nombreux • - Stade 2: Dépôts discrets nombreux • - Stade 3: Dépôts importants (> 1 mm) nombreux • - Stade 4: Dépôts très importants ou très nombreux mais laissant quelques zones non infiltrées. • - Stade 5: Dépôts sur tout l'endothélium.
Deux paramètres sont à prendre en considération: • 1. Le nombre d'animaux présentant des lésions macroscopiques, dont le pourcentage d'animaux atteints. • 2. L'intensité des lésions observées cotées selon les indications fournies précédemment.

[7] = 100 mg/kg, 4 weeks, score relative to Clofibrate (Base 1)
[8] = compared with Clofibrate at the same dose

Structure (SMILES): CCOC(=O)C(C)(C)Oc1ccc(Cl)cc1 [Clofibrate]
- LD50 at 360 h ([1]; voie intrapéritonéale, mâles, "de l'ordre de"): ~1850 mg/kg
- DL50 (Souris SWISS [2]; mouse, in vivo, ip, 21600 min): ~1700 mg/kg
- LD50 at 360 h ([3]; DL50): 2500 ± 235 mg/kg
- DL50 (Souris SWISS [4]; mouse, in vivo, po, 360 h): 2650 ± 190 mg/kg
- Cholesterol LDL Cholesterol HDL Score/Clofibrate (Rats: Wistar femelles [5]; 100 mg/kg): 1.00
- Cholesterol T/ Cholesterol HDL Score/Clofibrate (Rats: Wistar femelles [5]; 100 mg/kg): 1.00
- Risque athérogène Score Total (Rats: Wistar femelles [5]; 100 mg/kg): 2
- Cholesterol E Score (Rats: Wistar femelles [5]; [7]): 1.00
- Cholesterol HDL Score (Rats: Wistar femelles [5]; [7]): 1.00
- Cholesterol LDL Score (Rats: Wistar femelles [5]; [7]): 1.00
- Cholesterol T Score (Rats: Wistar femelles [5]; [7]): 1.00
- Lipides totaux Score (Rats: Wistar femelles [5]; [7]): 1.00
- Triglycerides Score (Rats: Wistar femelles [5]; [7]): 1.00
- Cholesterol LDL Cholesterol HDL Score (Rats: Wistar femelles [5]; 100 mg/kg): 5.35
- Cholesterol T/ Cholesterol HDL Score (Rats: Wistar femelles [5]; 100 mg/kg): 6.69
- score général Biochimie (Rats: Wistar femelles [5]; 100 mg/kg): 6
- Intensité des lésions Cotation (Rats: Wistar femelles [6]; 100 mg/kg): 2.00

Structure (SMILES): COc1ccc(C(=O)CC2(O)C(=O)c3ccccc3C2=O)cc1OC [Produit de l'invention, 2-[(3,4-dimethoxybenzoyl)methyl] 2-hydroxy 1,3-dioxo indane]
- mortality at 360 h ([1]; 2000 mg/kg, 2000 mg/kg IP, read-out: Létalite sur 10 souris Femelles): 0%
- mortality at 360 h ([1]; 2000 mg/kg, 2000 mg/kg IP, read-out: Létalite sur 10 souris Mâles): 0%
- mortality at 360 h ([1]; 2500 mg/kg, 2500 mg/kg IP, read-out: Létalite sur 10 souris Femelles): 10%
- mortality at 360 h ([1]; 2500 mg/kg, 2500 mg/kg IP, read-out: Létalite sur 10 souris Mâles): 10%
- mortality at 360 h ([1]; 3000 mg/kg, 3000 mg/kg IP, read-out: Létalite sur 10 souris Femelles): 60%
- mortality at 360 h ([1]; 3000 mg/kg, 3000 mg/kg IP, read-out: Létalite sur 10 souris Mâles): 30%
- mortality at 360 h ([1]; 3500 mg/kg, 3500 mg/kg IP, read-out: Létalite sur 10 souris Femelles): 80%
- mortality at 360 h ([1]; 3500 mg/kg, 3500 mg/kg IP, read-out: Létalite sur 10 souris Mâles): 50%
- mortality at 360 h ([1]; 4000 mg/kg, 4000 mg/kg IP, read-out: Létalite sur 10 souris Femelles): 100%
- mortality at 360 h ([1]; 4000 mg/kg, 4000 mg/kg IP, read-out: Létalite sur 10 souris Mâles): 80%
- mortality at 360 h ([1]; 4500 mg/kg, 4500 mg/kg IP, read-out: Létalite sur 10 souris Femelles): 100%
- mortality at 360 h ([1]; 4500 mg/kg, 4500 mg/kg IP, read-out: Létalite sur 10 souris Mâles): 100%
- mortality at 360 h ([1]; 5000 mg/kg, 5000 mg/kg IP, read-out: Létalite sur 10 souris Femelles): 100%
- mortality at 360 h ([1]; 5000 mg/kg, 5000 mg/kg IP, read-out: Létalite sur 10 souris Mâles): 100%
- LD50 at 360 h ([1]; Souris Femelles, method Behrens et Karber (B.K.)): 3000 mg/kg
- LD50 at 360 h ([1]; Souris Femelles, method Miller et Tainter (M.T.), confidence interval P = 0,05): 3000 ± 145 mg/kg
- LD50 at 360 h ([1]; Souris Mâles, method Behrens et Karber (B.K.)): 3400 mg/kg
- LD50 at 360 h ([1]; Souris Mâles, method Miller et Tainter (M.T.), confidence interval P = 0,05): 3350 ± 190 mg/kg
- LD50 at 360 h ([1]; voie intrapéritonéale, sex not specified, "de l'ordre de"): ~3000 mg/kg
- DLO (Souris SWISS [2]; IP, Souris Femelles): 2000 mg/kg
- DLO (Souris SWISS [2]; IP, Souris Mâles): 2000 mg/kg
- La mort survient par arrêt respiratoire en (Souris SWISS [2]; IP, time to death after injection): 24 - 48 heures
- LD50 at 360 h ([3]; VO, souris mâles et femelles, read-out: DL50): > 10000 mg/kg
- létalité, symptomatologie toxique (Souris SWISS [4]): ni létalité, ni symptomatologie toxique
- létalité, symptomatologie toxique (Souris SWISS [4]; listed as dérivé): n'est pas toxique
- DLO (Souris SWISS [4]; VO, souris mâles et femelles): ≥ 10.000 mg/kg
- DL100 (Souris SWISS [4]; mouse, in vivo, 21600 min): > 10000 mg/kg
- Cholesterol LDL Cholesterol HDL Score/Clofibrate (Rats: Wistar femelles [5]; 100 mg/kg): 0.46
- Cholesterol T/ Cholesterol HDL Score/Clofibrate (Rats: Wistar femelles [5]; 100 mg/kg): 0.44
- Risque athérogène Score Total (Rats: Wistar femelles [5]; 100 mg/kg): 0.90
- Cholesterol E Score (Rats: Wistar femelles [5]; [7]): 1.05
- Cholesterol LDL Score (Rats: Wistar femelles [5]; [7]): 1.04
- Cholesterol T Score (Rats: Wistar femelles [5]; [7]): 1.14
- Lipides totaux Score (Rats: Wistar femelles [5]; [7]): 1.37
- Triglycerides Score (Rats: Wistar femelles [5]; [7]): 1.07
- Cholesterol LDL Cholesterol HDL Score (Rats: Wistar femelles [5]; 100 mg/kg): 15.63
- Cholesterol T/ Cholesterol HDL Score (Rats: Wistar femelles [5]; 100 mg/kg): 17.81
- score général Biochimie (Rats: Wistar femelles [5]; 100 mg/kg): 5.6 and 5.67
- activité sur les paramètres biochimiques (Rats: Wistar femelles [5]; [8]): aussi actif que le Clofibrate
- activité anti-lipémiante (Rats: Wistar femelles [5]; dès la dose de 100 mg/kg): nette activité anti-lipémiante
- Animaux Atteints Score Clofibrate (Rats: Wistar femelles [6]; 100 mg/kg): 1.69
- Intensité des lésions Score Clofibrate (Rats: Wistar femelles [6]; 100 mg/kg): 0.88
- Observations Macroscopiques Score Total (Rats: Wistar femelles [6]; 100 mg/kg): 2.57
- Animaux Atteints % (Rats: Wistar femelles [6]; 100 mg/kg, animals with macroscopic lesions): 69.23%
- Intensité des lésions Cotation (Rats: Wistar femelles [6]; 100 mg/kg): 2.08
- activité sur l'évalution des lésions macroscopiques (Rats: Wistar femelles [6]; [8]): plus actif
